Tested on: corneal sensitivity
Test: First in human study, esthesiometry assessment (Part 3)
Assay type: in vivo
Details: single eye drop; for anesthetic effect on the cornea: healthy subjects
Excerpt: Part 3 was an esthesiometry assessment to evaluate the anesthetic properties of compound I. Part 3 of the study had four arms, with compound I, vehicle, tetracaine (0.5% ophthalmic solution, used as a positive control) and diclofenac sodium (0.1% ophthalmic solution, used as the active NSAID comparator). Ocular anesthetic was selected because of its established anesthetic effect; however it is not the standard of care due to its negative effect on wound healing. NSAID is the current standard of care for corneal pain after PRK with minimal anesthetic but significant pain control properties. Vehicle eye drops were used as a negative control to enable better determination of the potential anesthetic effect. Twelve healthy subjects, who met the eligibility criteria, were randomized to receive a single eye drop of 4 study treatments, each during 1 of 4 different study days (Days 1, 4, 7 and 10). Each subject was randomized to receive the study treatment according to one of the following four sequences: • Sequence 1: Anesthetic, NSAID, compound I 2.5%, Vehicle • Sequence 2: NSAID, Vehicle, Anesthetic, compound I 2.5% • Sequence 3: Vehicle, compound I 2.5%, NSAID, Anesthetic • Sequence 4: compound I 2.5%, Anesthetic, Vehicle, NSAID
The first-in-human study further evaluated potential anesthetic effect of topical ocular 2.5% compound I by esthesiometry testing, i.e. measurement of the filament length (cm) when the threshold of cornea touch is perceived.

SMILES | anesthetic effect on the cornea | duration of action of anesthetic effect
O=C(O)Cc1ccccc1Nc1c(Cl)cccc1Cl [diclofenac 0.1%, diclofenac sodium] | no anesthetic effect | –
CCCCNc1ccc(C(=O)OCCN(C)C)cc1 [tetracaine 0.5%, tetracaine] | had an anesthetic effect | approximately 10 minutes
